What was measured:
[1] = Acute toxicity on mice (oral); conditions: mouse, in vivo, p.o., CFLP mice, 20 ml/kg, 4 days observation
Method: The acute toxicity of the new compounds according to the invention was determined on white mice of both sexes weighing 18-24 g belonging to the strain CFLP. Administration was effected with an oral dosage of 20 ml/kg. After treatment the animals were kept under observation for 4 days.

tetrabenazine ptosis [2] = experiment: Tetrabenazine antagonism on mice; conditions: for ED50: Mus musculus, po; for Therapeutic index LD50/ED50: p.o., mice, tetrabenazine antagonism
Method: Groups of animals consisting of 10-20 mice each were examined. A 0.9% sodium chloride solution was administered to the mice of the control group in a dosage of 20 ml/kg. After 30 minutes 50 mg/kg of tetrabenazine were administered. The animals with closed interpalpebral zone were counted 30, 60, 90 and 120 minutes after the administration of the tetrabenazine. The data were summarized and the inhibition in comparison with the control was determined.

yohimbine toxicity = experiment: Potentiation of yohimbine toxicity on mice; format: in vivo; conditions: for ED50: Mus musculus, po; for Therapeutic index LD50/ED50: p.o., mice, yohimbine potentiation
Method: The experiments were carried out by the method of Quinton et al. The test compound was administered orally in a volume of 20 ml/kg half an hour before the administration of the standard yohimbine dose.

tetrabenazine ptosis [3] = experiment: Tetrabenazine ptosis antagonism on rats; format: in vivo; conditions: for ED50: Rattus norvegicus, read-out: Tetrabenazine ptosis ant. ED50; for Therapeutic index: tetrabenazine ptosis ant.
Method: (§1) The experiments were carried out on the analogy of the tests described at point (a).

[4] = Acute toxicity on rats (oral); conditions: rat, in vivo, p.o., Wistar rats, 0.5% suspension with carboxymethylcellulose
Method: The acute toxicity was investigated also on Wistar rats. A 0.5% suspension prepared from the test compound and carboxymethylcellulose was administered orally to the animals.

[5] = test system: Reserpine-ethanol narcose; experiment: Reserpine-ethanol narcose antagonism on rats; format: in vivo; conditions: for ED50: Rattus norvegicus, read-out: Reserpine-ethanol narcose ant. ED50; for Ther. index: reserpine-ethanol narcose ant.
Method: as §1

Compound	LD50 at 96 h [1] [mg/kg]	ED50 (tetrabenazine ptosis [2]) [mg/kg]	Therapeutic index LD50/ED50 (tetrabenazine ptosis [2])	ED50 (yohimbine toxicity) [mg/kg]	Therapeutic index LD50/ED50 (yohimbine toxicity)	ED50 (tetrabenazine ptosis [3]) [mg/kg]	Therapeutic index (tetrabenazine ptosis [3])	LD50 [4] [mg/kg]	ED50 [5] [mg/kg]	Ther. index [5]
c1ccc(-c2ncn[n+]3ccccc23)cc1 [Compound A, 1-phenyl-pyrido[2,1-f]-as-triazinium bromide]	1400	30	46.7	66	21.2	–	–	–	–	–
Clc1ccc(-c2ncn[n+]3ccccc23)cc1 [Compound B, 1-(4-chlorophenyl)-pyrido[2,1-f]-as-triazinium bromide]	900	14	64.2	50	18.0	–	–	–	–	–
CN(C)CCC=C1c2ccccc2CCc2ccccc21 [Amitriptylin, reference compound]	225	12	18.75	–	–	11.5	46.1	530	40	13.25
Clc1ccc(-c2ncn[n+]3ccc4ccccc4c23)cc1 [Compound C, 1-(4-chlorophenyl)-as-triazino[6,1-a]-isoquinolinium bromide]	600	3.2	187.5	3.5	171.4	5.6	178.6	1000	40	25.0
